Results from patent US11884682B2, “Compounds and their uses as MIF inhibitors” (NANJING IMMUNOPHAGE BIOTECH CO., LTD., priority 2020, dated 2024).

Target: MIF (Homo sapiens (Human), UniProt P14174)
Assay: MIF tautomerase assay using pHPP as substrate
Type: biochemical
Settings: for Tautomerase Inhibition pIC50: cell-free, pHPP substrate 1.5 mM, MIF 3 nM, mean pIC50 of multiple test results; for IC50: read-out: Tautomerase Inhibition pIC50 (converted)
Procedure: Tautomerase Assay Using pHPP as substrate
This assay measured MIF's tautomerase activity in a cell-free system and was based on the determination of initial rates of the MIF-catalyzed conversion of the ketonic into the enolic tautomer of pHPP. This was achieved by spectrophotometric quantification of the complex between borate and the product of the reaction (enolic pHPP). The substrate was prepared by conversion of the enolic pHPP into its ketonic form. To achieve this, 0.5 M pHPP in methanol was diluted 10-fold with 50 mM sodium acetate buffer at pH 6.0, and then the suspension was shaken for 24 h at room temperature in darkness, and finally stored at 4° C. for not more than 1 week, with 5 min sonication being recommended before use.
Assays were performed in small-volume clear-bottom black 96 or 384-well polystyrene plates (Greiner Bio-One). First, 2 μL of the enzyme solution containing 6 nM of MIF in DPBS, 0.025% w/v BSA, and 300 μM CHAPS was dispensed onto sample and negative control wells using Multidrop Combi with metallic tip cassettes (Thermo Fisher Scientific) previously treated with Sigmacote. Then, 2 μL of the same buffer without MIF was dispensed onto positive control wells. The reaction was started by addition of the following to all wells: 2 μL of substrate solution containing 3 mM ketonic pHPP in 200 mM boric acid, 25 mM sodium phosphate, 0.025% w/v BSA, and 300 μM CHAPS at pH 6.0. In order to remove bubbles, the plate was centrifuged in an Allegra 25R centrifuge (Beckman Coulter, Inc., Brea, CA) at 1000 rpm for 2 min at room temperature. Then, the plate was read in an EnVision. Final concentrations of enzyme and substrate were 3 nM and 1.5 mM, respectively. Initial rates were calculated for each well as the slope of the absorbance progress curve.
The data mentioned below represents a mean pIC50 value of multiple test results. It is understood that the data illustrated below may have reasonable variation depending on the specific conditions and procedures used by the person conducting the testing.

MIF, sequence (P14174 2-115): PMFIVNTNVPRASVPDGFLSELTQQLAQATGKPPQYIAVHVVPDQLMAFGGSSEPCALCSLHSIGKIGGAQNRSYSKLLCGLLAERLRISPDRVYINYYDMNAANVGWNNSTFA

Row | Tautomerase Inhibition pIC50 | IC50 | Structure (SMILES)
1 | <5 |  | O=C(Nc1nnc(-c2ccco2)o1)[C@H]1CCN(Cc2ccccc2)C1 [Compound 3, (S)-1-benzyl-N-(5-(furan-2-yl)-1,3,4-oxadiazol-2-yl)pyrrolidine-3-carboxamide]
2 |  | 38 nM | COc1cc([C@H]2CC[C@H](C(=O)O)CC2)ccc1C(=O)Nc1nnc(-c2cccs2)o1 [Compound 28, Trans-4-(3-methoxy-4-((5-(thiophen-2-yl)-1,3,4-oxadiazol-2-yl)carbamoyl)phenyl)cyclohexane-1-carboxylic acid]
3 | <5 |  | COc1cc(N2CCOCC2)ccc1C(=O)N(C)c1nnc(-c2cncs2)o1 [Compound 36, 2-methoxy-N-methyl-4-morpholino-N-(5-(thiazol-5-yl)-1,3,4-oxadiazol-2-yl)benzamide]
4 | <5 |  | COc1cc(N2CCOCC2)ccc1C(=O)NCc1nnc(-c2nccs2)o1 [Compound 62, 2-methoxy-4-morpholino-N-((5-(thiazol-2-yl)-1,3,4-oxadiazol-2-yl)methyl)benzamide]
5 | 7.95 |  | COc1cc(CCCc2nn[nH]n2)ccc1C(=O)Nc1nnc(-c2cccs2)o1 [Compound 26, 4-(3-(2H-tetrazol-5-yl)propyl)-2-methoxy-N-(5-(thiophen-2-yl)-1,3,4-oxadiazol-2-yl)benzamide]
6 | 8.14 |  | COc1cc(C2=CCC(C(=O)O)CC2)ccc1C(=O)Nc1nnc(-c2cccs2)o1 (stereo not drawn) [Compound 29, 3′-methoxy-4′-((5-(thiophen-2-yl)-1,3,4-oxadiazol-2-yl)carbamoyl)-2,3,4,5-tetrahydro-[1,1′-biphenyl]-4-carboxylic acid]
7 | 6.12 |  | COc1cc(OCCO)ccc1C(=O)NCc1nnc(-c2cccs2)o1 [Compound 70, 4-(2-hydroxyethoxy)-2-methoxy-N-((5-(thiophen-2-yl)-1,3,4-oxadiazol-2-yl)methyl)benzamide]
8 | 7.44 |  | COc1cc(N2CCOCC2)ccc1C(=O)Nc1nnc(-c2cccs2)o1 [Compound 37, 2-methoxy-4-morpholino-N-(5-(thiophen-2-yl)-1,3,4-oxadiazol-2-yl)benzamide]
9 | 6.22 |  | COc1cc(N2CC(C)OC(C)C2)ccc1C(=O)NCc1nnc(-c2cccs2)o1 (stereo not drawn) [Compound 55, 4-(2,6-dimethylmorpholino)-2-methoxy-N-((5-(thiophen-2-yl)-1,3,4-oxadiazol-2-yl)methyl)benzamide]
10 | <5 |  | O=C(NCc1nnc(-c2cccs2)o1)C1CCCCC1 [Compound 49, N-((5-(thiophen-2-yl)-1,3,4-oxadiazol-2-yl)methyl)cyclohexanecarboxamide]
11 | <5 |  | COc1ccc(C(=O)Nc2nnc(-c3ccco3)o2)c(Cl)c1 [Compound 1, 2-chloro-N-(5-(furan-2-yl)-1,3,4-oxadiazol-2-yl)-4-methoxybenzamide]
12 | <5 |  | COc1cc(N2CCOCC2)ccc1S(=O)(=O)Nc1nnc(-c2cncs2)o1 [Compound 35, 2-methoxy-4-morpholino-N-(5-(thiazol-5-yl)-1,3,4-oxadiazol-2-yl)benzenesulfonamide]
13 | <5 |  | COC(=O)c1ccccc1C(=O)Nc1nnc(-c2cccs2)o1 [Compound 12, methyl 2-((5-(thiophen-2-yl)-1,3,4-oxadiazol-2-yl)carbamoyl)benzoate]
14 | 5.09 |  | O=C(NCc1nnc(-c2cccs2)o1)c1ccccc1Cl [Compound 43, 2-chloro-N-((5-(thiophen-2-yl)-1,3,4-oxadiazol-2-yl)methyl)benzamide]
15 | 5.90 |  | CCOc1ccccc1C(=O)Nc1nnc(-c2cccs2)o1 [Compound 10, 2-ethoxy-N-(5-(thiophen-2-yl)-1,3,4-oxadiazol-2-yl)benzamide]
16 | <5 |  | CCN(Cc1nnc(-c2cccs2)o1)C(=O)c1ccc(N2CCOCC2)cc1OC [Compound 53, N-ethyl-2-methoxy-4-morpholino-N-((5-(thiophen-2-yl)-1,3,4-oxadiazol-2-yl)methyl)benzamide]
17 | <5 |  | O=C(Cc1ccccc1)Nc1nnc(-c2cccs2)o1 [Compound 13, 2-phenyl-N-(5-(thiophen-2-yl)-1,3,4-oxadiazol-2-yl)acetamide]

Row | Tautomerase Inhibition pIC50 | IC50 | Structure (SMILES)
18 | 1.77 |  | O=C(NCc1nnc(-c2cccs2)o1)c1ccccc1OC(F)(F)F [Compound 41, N-((5-(thiophen-2-yl)-1,3,4-oxadiazol-2-yl)methyl)-2-(trifluoromethoxy)benzamide]
19 |  | 18.6 nM | COc1cc([C@H]2CC[C@@H](C(=O)O)CC2)ccc1C(=O)Nc1nnc(-c2cccs2)o1 [Compound 27, Cis-4-(3-methoxy-4-((5-(thiophen-2-yl)-1,3,4-oxadiazol-2-yl)carbamoyl)phenyl)cyclohexane-1-carboxylic acid]
20 | <5 |  | COc1cnccc1C(=O)NCc1nnc(-c2cccs2)o1 [Compound 47, 3-methoxy-N-((5-(thiophen-2-yl)-1,3,4-oxadiazol-2-yl)methyl)isonicotinamide]
21 | 3.23 |  | COc1cc(N2CCOCC2)ccc1C(=O)N(C)C(C)(C)c1nnc(-c2cccs2)o1 [Compound 68, 2-methoxy-N-methyl-4-morpholino-N-(2-(5-(thiophen-2-yl)-1,3,4-oxadiazol-2-yl)propan-2-yl)benzamide]
22 | 7.68 |  | COc1cc(CCCC#N)ccc1C(=O)Nc1nnc(-c2cccs2)o1 [Compound 25, 4-(3-cyanopropyl)-2-methoxy-N-(5-(thiophen-2-yl)-1,3,4-oxadiazol-2-yl)benzamide]
23 | <5 |  | COc1ncccc1C(=O)NCc1nnc(-c2cccs2)o1 [Compound 48, 2-methoxy-N-((5-(thiophen-2-yl)-1,3,4-oxadiazol-2-yl)methyl)nicotinamide]
24 | <5 |  | CN1CCC(C(=O)NCc2nnc(-c3cccs3)o2)CC1 [Compound 50, 1-methyl-N-((5-(thiophen-2-yl)-1,3,4-oxadiazol-2-yl)methyl)piperidine-4-carboxamide]
25 | <5 |  | COc1ccc(C(=O)Nc2nnc(-c3sccc3C)o2)c(OC)c1 [Compound 7, 2,4-dimethoxy-N-(5-(3-methylthiophen-2-yl)-1,3,4-oxadiazol-2-yl)benzamide]
26 | 6.54 |  | COc1ccc(C(=O)Nc2nnc(-c3sccc3F)o2)c(OC)c1 [Compound 8, N-(5-(3-fluorothiophen-2-yl)-1,3,4-oxadiazol-2-yl)-2,4-dimethoxybenzamide]
27 | 5.07 |  | COc1ccc(C(=O)Nc2nnc(-c3ccccc3)o2)c(OC)c1 [Compound 2, 2,4-dimethoxy-N-(5-phenyl-1,3,4-oxadiazol-2-yl)benzamide]
28 | <5 |  | COc1cc(N2CCOCC2)ccc1C(=O)NC1(c2nnc(-c3cccs3)o2)CC1 [Compound 66, 2-methoxy-4-morpholino-N-(1-(5-(thiophen-2-yl)-1,3,4-oxadiazol-2-yl)cyclopropyl)benzamide]
29 | 7.73 |  | COc1ccc(C(=O)Nc2nnc(-c3ccsc3)o2)c(OC)c1 [Compound 5, 2,4-dimethoxy-N-(5-(thiophen-3-yl)-1,3,4-oxadiazol-2-yl)benzamide]
30 | 3.10 |  | O=C(NCc1nnc(-c2cccs2)o1)c1ccccc1O [Compound 42, 2-hydroxy-N-((5-(thiophen-2-yl)-1,3,4-oxadiazol-2-yl)methyl)benzamide]
31 | <5 |  | O=C(NCc1nnc(-c2cccs2)o1)c1c(F)cccc1F [Compound 45, 2,6-difluoro-N-((5-(thiophen-2-yl)-1,3,4-oxadiazol-2-yl)methyl)benzamide]
32 | 8.16 |  | COc1cc(N2CCCC(C(=O)O)C2)ccc1C(=O)Nc1nnc(-c2cccs2)o1 (stereo not drawn) [Compound 31, 1-(3-methoxy-4-((5-(thiophen-2-yl)-1,3,4-oxadiazol-2-yl)carbamoyl)phenyl)piperidine-3-carboxylic Acid]
33 | 7.09 |  | COc1cc(O)ccc1C(=O)Nc1nnc(-c2cccs2)o1 [Compound 16, 4-hydroxy-2-methoxy-N-(5-(thiophen-2-yl)-1,3,4-oxadiazol-2-yl)benzamide]
34 | 6.21 |  | COCCOc1ccc(C(=O)NCc2nnc(-c3cccs3)o2)c(OC)c1 [Compound 71, 2-methoxy-4-(2-methoxyethoxy)-N-((5-(thiophen-2-yl)-1,3,4-oxadiazol-2-yl)methyl)benzamide]

Row | Structure (SMILES) | Tautomerase Inhibition pIC50 | IC50
35 | COc1cc(N2CC3CC(C2)O3)ccc1C(=O)NCc1nnc(-c2cccs2)o1 [Compound 57, 4-(6-oxa-3-azabicyclo[3.1.1]heptan-3-yl)-2-methoxy-N-((5-(thiophen-2-yl)-1,3,4-oxadiazol-2-yl)methyl)benzamide] | 6.29 | 
36 | COc1cc(N2CC3CC(C2)O3)ccc1C(=O)Nc1nnc(-c2cccs2)o1 [Compound 33, 4-(6-oxa-3-azabicyclo[3.1.1]heptan-3-yl)-2-methoxy-N-(5-(thiophen-2-yl)-1,3,4-oxadiazol-2-yl)benzamide] | 7.29 | 
